Experimental data reported in article PMC4232042 (Drug Design, Development and Therapy, 2014).

Target: Kv1.5 (Homo sapiens, UniProt P22460)
Experiment: whole-cell patch clamp in HEK […] cells stably expressing Kv1.[…]
Assay type: cell-based

Sequence of Kv1.5 (P22460 whole entry): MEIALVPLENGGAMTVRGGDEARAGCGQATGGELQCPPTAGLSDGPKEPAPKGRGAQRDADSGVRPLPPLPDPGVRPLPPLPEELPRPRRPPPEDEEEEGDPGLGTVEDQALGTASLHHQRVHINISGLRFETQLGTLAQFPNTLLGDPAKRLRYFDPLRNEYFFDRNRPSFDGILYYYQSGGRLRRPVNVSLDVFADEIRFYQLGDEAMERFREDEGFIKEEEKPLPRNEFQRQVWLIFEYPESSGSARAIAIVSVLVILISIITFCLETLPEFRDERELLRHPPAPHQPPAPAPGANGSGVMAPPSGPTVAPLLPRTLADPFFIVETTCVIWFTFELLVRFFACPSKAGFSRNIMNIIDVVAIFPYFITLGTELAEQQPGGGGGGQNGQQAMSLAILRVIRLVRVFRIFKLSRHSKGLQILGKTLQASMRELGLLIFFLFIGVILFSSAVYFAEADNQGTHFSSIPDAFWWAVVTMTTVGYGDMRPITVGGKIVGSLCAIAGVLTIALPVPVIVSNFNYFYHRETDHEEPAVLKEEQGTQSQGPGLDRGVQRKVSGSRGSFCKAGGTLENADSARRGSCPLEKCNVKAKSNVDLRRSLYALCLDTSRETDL

## Cc1ncc2n1-c1ccc(Cl)cc1C(c1ccccc1F)=NC2 [midazolam]
  IC50: 17 ± 4.2 µM
